# Results reported in ChEMBL document CHEMBL1136136, “Formylchromone derivatives as a novel class of protein tyrosine phosphatase 1B inhibitors” (Bioorg Med Chem Lett, 2003).
# Key:
# [1] = target: T1, Tyrosine-protein phosphatase non-receptor type 1 (Homo sapiens, UniProt P18031); experiment: Inhibition of human Protein-tyrosine phosphatase 1B
# T1 sequence (P18031 whole entry): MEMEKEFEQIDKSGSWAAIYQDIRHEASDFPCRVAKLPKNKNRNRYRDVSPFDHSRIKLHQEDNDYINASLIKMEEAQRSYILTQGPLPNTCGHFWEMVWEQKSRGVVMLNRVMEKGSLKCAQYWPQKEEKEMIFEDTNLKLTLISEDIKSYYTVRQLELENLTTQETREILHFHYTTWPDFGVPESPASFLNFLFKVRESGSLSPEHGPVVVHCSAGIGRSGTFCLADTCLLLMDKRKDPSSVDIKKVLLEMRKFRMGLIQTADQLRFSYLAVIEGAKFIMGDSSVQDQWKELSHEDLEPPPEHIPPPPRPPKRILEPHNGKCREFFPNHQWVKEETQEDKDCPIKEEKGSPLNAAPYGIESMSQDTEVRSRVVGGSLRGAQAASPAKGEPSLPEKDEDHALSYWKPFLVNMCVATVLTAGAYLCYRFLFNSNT
# [2] = target: T2, Tyrosine-protein phosphatase non-receptor type 2 (Homo sapiens, UniProt P17706); experiment: Compound was tested for selectivity against human T cell protein tyrosine phosphatase; format: cell-based
# T2 sequence (P17706 whole entry): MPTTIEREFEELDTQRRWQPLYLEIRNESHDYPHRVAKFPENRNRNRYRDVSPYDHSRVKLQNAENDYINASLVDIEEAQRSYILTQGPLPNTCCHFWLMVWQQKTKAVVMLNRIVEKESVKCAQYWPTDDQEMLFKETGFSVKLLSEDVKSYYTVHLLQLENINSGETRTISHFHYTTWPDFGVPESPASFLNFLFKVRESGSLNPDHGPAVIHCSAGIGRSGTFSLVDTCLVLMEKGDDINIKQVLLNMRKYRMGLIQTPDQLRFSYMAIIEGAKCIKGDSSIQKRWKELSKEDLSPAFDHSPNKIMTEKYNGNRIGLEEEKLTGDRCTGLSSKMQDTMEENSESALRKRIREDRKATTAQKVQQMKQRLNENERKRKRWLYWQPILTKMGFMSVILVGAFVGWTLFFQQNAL
# [3] = target: Receptor-type tyrosine-protein phosphatase F (Homo sapiens, UniProt P10586); experiment: Compound was tested for selectivity against LAR
# Chain of Receptor-type tyrosine-protein phosphatase F (P10586 whole entry): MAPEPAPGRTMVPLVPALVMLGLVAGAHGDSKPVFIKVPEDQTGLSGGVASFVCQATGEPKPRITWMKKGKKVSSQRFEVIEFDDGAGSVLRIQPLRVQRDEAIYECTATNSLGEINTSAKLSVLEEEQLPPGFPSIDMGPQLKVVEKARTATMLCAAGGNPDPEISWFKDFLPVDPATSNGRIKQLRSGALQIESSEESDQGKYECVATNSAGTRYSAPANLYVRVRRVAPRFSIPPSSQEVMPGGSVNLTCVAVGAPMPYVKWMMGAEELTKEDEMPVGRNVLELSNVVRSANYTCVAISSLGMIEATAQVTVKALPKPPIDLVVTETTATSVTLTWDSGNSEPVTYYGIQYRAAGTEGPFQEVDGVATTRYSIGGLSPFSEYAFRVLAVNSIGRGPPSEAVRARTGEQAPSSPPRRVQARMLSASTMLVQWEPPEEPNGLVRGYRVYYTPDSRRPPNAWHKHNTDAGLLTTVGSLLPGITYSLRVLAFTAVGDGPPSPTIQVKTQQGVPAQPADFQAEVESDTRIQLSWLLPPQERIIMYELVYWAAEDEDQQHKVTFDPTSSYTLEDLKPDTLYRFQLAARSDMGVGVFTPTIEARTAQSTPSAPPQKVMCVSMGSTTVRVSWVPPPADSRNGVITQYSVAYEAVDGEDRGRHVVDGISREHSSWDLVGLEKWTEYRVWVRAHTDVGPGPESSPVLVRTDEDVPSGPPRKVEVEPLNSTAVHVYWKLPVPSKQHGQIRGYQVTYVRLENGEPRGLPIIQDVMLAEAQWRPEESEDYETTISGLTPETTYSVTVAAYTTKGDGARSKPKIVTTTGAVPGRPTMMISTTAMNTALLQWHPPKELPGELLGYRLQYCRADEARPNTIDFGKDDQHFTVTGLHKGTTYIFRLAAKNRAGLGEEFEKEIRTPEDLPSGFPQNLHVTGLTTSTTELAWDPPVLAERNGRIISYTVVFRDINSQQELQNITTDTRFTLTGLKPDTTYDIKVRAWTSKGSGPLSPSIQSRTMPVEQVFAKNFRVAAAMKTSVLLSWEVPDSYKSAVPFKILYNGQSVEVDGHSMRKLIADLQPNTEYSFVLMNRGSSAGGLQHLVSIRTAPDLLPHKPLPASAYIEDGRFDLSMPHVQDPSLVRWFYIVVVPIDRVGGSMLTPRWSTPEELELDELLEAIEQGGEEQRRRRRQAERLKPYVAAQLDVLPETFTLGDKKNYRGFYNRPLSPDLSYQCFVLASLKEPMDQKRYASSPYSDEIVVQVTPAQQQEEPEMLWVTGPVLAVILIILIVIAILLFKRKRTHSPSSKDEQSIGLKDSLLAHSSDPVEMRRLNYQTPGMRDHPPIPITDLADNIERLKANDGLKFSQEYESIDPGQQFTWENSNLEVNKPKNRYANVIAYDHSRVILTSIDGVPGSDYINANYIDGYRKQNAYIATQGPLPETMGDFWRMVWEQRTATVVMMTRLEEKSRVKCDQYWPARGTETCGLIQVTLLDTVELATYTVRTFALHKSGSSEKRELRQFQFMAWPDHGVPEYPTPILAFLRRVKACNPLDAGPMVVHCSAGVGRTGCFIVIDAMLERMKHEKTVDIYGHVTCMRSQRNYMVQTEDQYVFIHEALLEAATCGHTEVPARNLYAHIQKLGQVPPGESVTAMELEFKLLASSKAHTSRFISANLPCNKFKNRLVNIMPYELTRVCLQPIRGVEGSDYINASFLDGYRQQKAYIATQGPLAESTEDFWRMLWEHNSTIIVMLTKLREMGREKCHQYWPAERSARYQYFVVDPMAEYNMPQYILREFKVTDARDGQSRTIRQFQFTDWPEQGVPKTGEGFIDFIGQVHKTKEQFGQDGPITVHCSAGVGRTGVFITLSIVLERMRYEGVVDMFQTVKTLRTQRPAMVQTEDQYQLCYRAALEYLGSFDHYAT
SMILES,IC50 [1] [µM],IC50 [2] [µM],IC50 [3] [µM]
O=Cc1coc2ccc([N+](=O)[O-])cc2c1=O,91,–,–
O=C(O)c1coc2ccccc2c1=O,> 1000,–,–
O=Cc1coc2ccccc2c1=O,73,–,–
Nc1oc2ccccc2c(=O)c1C=O,> 1000,–,–
O=Cc1coc2ccc(F)cc2c1=O,55,–,–
O=C(O)c1cc(=O)c2ccccc2o1 [CHROMOCARB],> 1000,–,–
O=C(O)c1cc2ccccc2oc1=O [COUMARIN-3-CARBOXYLIC ACID],> 1000,–,–

# Stronger by IC50 [1], values ahead:
IC50 [1] [µM],IC50 [2] [µM],IC50 [3] [µM],SMILES
28,–,–,O=Cc1coc2ccc(Cl)cc2c1=O
25,–,–,O=Cc1coc2c(Cl)cc(Cl)cc2c1=O
25,–,–,O=Cc1coc2c(ccc3ccccc32)c1=O
22,–,–,CC(C)c1ccc2occ(C=O)c(=O)c2c1
20,–,–,O=Cc1coc2c(Br)cc(Br)cc2c1=O
20,–,–,O=Cc1coc2ccc(Br)cc2c1=O
18,–,–,Cc1cc2occ(C=O)c(=O)c2cc1Cl
14,780,> 1000,O=Cc1coc2ccc3ccccc3c2c1=O
14,240,> 1000,O=Cc1coc2ccc(-c3ccccc3)cc2c1=O
4.3,51,> 1000,O=Cc1coc2ccc(-c3ccc(-c4ccccc4)cc3)cc2c1=O
